The source made the active and inactive calls. No cut-off for these calls is given here.
What was measured:
[1] = biological target: Delta-type opioid receptor (Homo sapiens) (UniProt P41143); assay: Inhibition of human Gbetagamma-dependent delta opioid receptor-mediated PLC activation expressed in CHO cells assessed as reduction of DPDPE-mediated total inositol phosphate production at 10 uM after 30 mins by scintillation counting analysis in presence of [3H]inositol; format: functional, cell-based
[2] = biological target: T1, Guanine nucleotide-binding protein G(I)/G(S)/G(T) subunit beta-1/gamma-2 (Homo sapiens, UniProt P62873+P59768); assay: Inhibition of biotinylated Gbeta1gamma2 (unknown origin) binding to PLCbeta2 at 10 uM incubated for 16 hrs; format: protein-complex assay
[3] = biological target: T1, Guanine nucleotide-binding protein G(I)/G(S)/G(T) subunit beta-1/gamma-2; assay: Inhibition of biotinylated Gbeta1gamma2 (unknown origin) binding to PLCbeta3 at 10 uM incubated for 16 hrs; format: protein-complex assay
HL-60 [4] = assay: Binding affinity to Gbetagamma in human HL60 cells assessed as inhibition of fMLP-stimulated GRK2 translocation at 10 uM incubated for 5 mins prior to fMLP stimulation by Western blot analysis; format: cell-based
HL-60 [5] = assay: Binding affinity to Gbetagamma in human HL60 cells assessed as inhibition of fMLP-stimulated Ca2+ release at 10 uM incubated for 5 mins prior to fMLP stimulation by Fura2-AM dye-based assay; format: cell-based
HEK293 = assay: Effect on carbachol-dependent Ca2+ release in HEK293 cells expressing M3 muscarinic receptor at 10 uM; format: functional, cell-based; details: Homo sapiens
HL-60 [6] = assay: Binding affinity to Gbetagamma in human HL60 cells assessed as inhibition of fMLP-stimulated GFP-PHAkt translocation to plasma membrane at 10 uM incubated for 5 mins prior to fMLP stimulation by Western blot analysis; format: cell-based
HL-60 [7] = assay: Effect on fMLP-stimulated ERK1/2 phosphorylation in human HL60 cells at 10 uM incubated for 5 mins prior to fMLP stimulation by Western blot analysis; format: functional, cell-based
HL-60 [8] = assay: Binding affinity to Gbetagamma in differentiated human HL60 cells assessed as inhibition of fMLP-stimulated Rac1 activation at 10 uM preincubated for 10 mins followed by fMLP challenge for 90 secs by Western blot analysis; format: cell-based
HL-60 [9] = assay: Binding affinity to Gbetagamma in differentiated human HL60 cells assessed as inhibition of fMLP-stimulated superoxide production at 10 uM preincubated for 10 mins followed by nitro blue tetrazolium addition for 5 mins and fMLP addition for 30 mins by NADPH oxidase assay; format: cell-based
HL-60 [10] = assay: Antiinflammatory activity in differentiated human HL60 cells assessed as inhibition of fMLP-stimulated cell migration at 10 uM after 1 hr by Boyden chamber method; format: functional, cell-based
[11] = Effect on differentiated human HL60 cell motility at 10 uM after 1 hr by Boyden chamber method; format: ADME, cell-based; details: hl-60, 1 h
Neutrophil [12] = assay: Antiinflammatory activity in primary human neutrophils assessed as inhibition of GM-CSF-stimulated chemotaxis at 1 uM after 1 hr by Boyden chamber method; format: functional, cell-based
HL-60 [13] = assay: Antiinflammatory activity in differentiated human HL60 cells assessed as inhibition of fMLP-stimulated chemotaxis by transwell assay; format: functional, cell-based
Neutrophil [14] = assay: Antiinflammatory activity in primary human neutrophils assessed as inhibition of IL8-stimulated chemotaxis at 10 uM after 1 hr by Boyden chamber method; format: functional, cell-based
Neutrophil [15] = assay: Antiinflammatory activity in primary human neutrophils assessed as inhibition of fMLP-stimulated chemotaxis at 10 uM after 1 hr by Boyden chamber method; format: functional, cell-based
Mus musculus [16] = assay: Antinociceptive activity in ICR mouse at 100 nmol, icv after 20 mins by tail flick test relative to control; format: functional, organism-based
Mus musculus [17] = assay: Potentiation of morphine-induced antinociceptive activity in PLCbeta3-deficient ICR mouse at 100 nmol, icv after 20 mins by tail flick test; format: functional, organism-based
Mus musculus [18] = assay: Potentiation of morphine-induced antinociceptive activity in ICR mouse assessed as morphine ED50 at 100 mg/kg, ip after 20 mins by tail flick test (reference value: 5 mg/kg); format: functional
[19] = biological target: Mu-type opioid receptor (Homo sapiens) (UniProt P35372); assay: Inhibition of human Gbetagamma-dependent mu opioid receptor-mediated PLC activation expressed in CHO cells assessed as reduction of DAMGO-mediated total inositol phosphate production at 10 uM after 30 mins by scintillation counting analysis in presence of [3H]inositol; format: functional, cell-based
CHO [20] = assay: Effect on total inositol phosphate production in CHO cells expressing human mu opioid receptor at 10 uM after 30 mins by scintillation counting analysis in presence of [3H]inositol; format: ADME, cell-based, Cricetulus griseus; details: chinese hamster, 0.5 h
[21] = biological target: Mu-type opioid receptor (Homo sapiens) (UniProt P35372); assay: Inhibition of human Gbetagamma-dependent mu opioid receptor-mediated PLC activation expressed in CHO cells assessed as reduction of morphine-mediated total inositol phosphate production at 10 uM after 30 mins by scintillation counting analysis in presence of [3H]inositol; format: functional, cell-based
CHO [22] = assay: Reduction of U50,488-mediated total inositol phosphate production in CHO cells expressing human mu opioid receptor at 10 uM after 30 mins by scintillation counting analysis in presence of [3H]inositol; format: functional, cell-based; details: Cricetulus griseus
CHO [23] = assay: Reduction of DPDPE-mediated total inositol phosphate production in CHO cells expressing human mu opioid receptor at 10 uM after 30 mins by scintillation counting analysis in presence of [3H]inositol; format: functional, cell-based; details: Cricetulus griseus
CHO [24] = assay: Inhibition of human Gbetagamma-dependent kappa opioid receptor-mediated PLC activation expressed in CHO cells assessed as reduction of U50,488-mediated total inositol phosphate production at 10 uM after 30 mins by scintillation counting analysis in presence of [3H]inositol; format: cell-based
[25] = biological target: Delta-type opioid receptor (Homo sapiens) (UniProt P41143); assay: Inhibition of human Gbetagamma-dependent delta opioid receptor-mediated PLC activation expressed in CHO cells assessed as reduction of Deltorphin 2-mediated total inositol phosphate production at 10 uM after 30 mins by scintillation counting analysis in presence of [3H]inositol; format: functional, cell-based
Mus musculus [26] = species: Mus musculus; assay: Inhibition of Gbetagamma in mouse cardiomyocytes assessed as reduction of agonist-stimulated beta adrenergic receptor-mediated GRK2 recruitment to membrane; format: cell-based
[27] = Reduction of membrane associated GRK2 level in mouse cardiomyocytes; format: ADME, cell-based; details: cardiomyocyte
Mus musculus [28] = species: Mus musculus; assay: Inhibition of Gbetagamma-mediated GRK2 recruitment in mouse cardiomyocytes assessed as cAMP generation at 10 uM treated for 5 mins; format: functional, cell-based
Mus musculus [29] = species: Mus musculus; assay: Inhibition of Gbetagamma-mediated GRK2 recruitment in mouse cardiomyocytes assessed as isoproterenol-induced cAMP generation at 10 uM pretreated for 5 mins followed by isoproterenol induction measured after 15 mins; format: functional, cell-based
Mus musculus [30] = species: Mus musculus; assay: Inhibition of Gbetagamma-GRK2 interaction in mouse cardiomyocytes assessed as increase in contractility; format: cell-based
Mus musculus [31] = species: Mus musculus; assay: Inhibition of Gbetagamma-GRK2 interaction in mouse cardiomyocytes assessed as increase in isoproterenol-induced contractility; format: cell-based
Mus musculus [32] = species: Mus musculus; assay: Inhibition of Gbetagamma-GRK2 interaction in mouse cardiomyocytes assessed as increase in contractility in presence of beta adrenergic receptor antagonist propranolol; format: cell-based
Mus musculus [33] = species: Mus musculus; assay: Inhibition of Gbetagamma-GRK2 interaction in mouse cardiomyocytes assessed as increase in isoproterenol-induced contractility in presence of beta adrenergic receptor antagonist propranolol; format: cell-based
Mus musculus [34] = assay: Toxicity in C57/B16 mouse assessed as overt toxic effect at 250 mg/kg/day administered for 2 weeks; format: organism-based; details: in vivo, 336 h
Mus musculus [35] = assay: Toxicity in C57/B16 mouse assessed as effect on cardiac function at 100 mg/kg, ip qd administered for 7 days by conscious echocardiography; format: organism-based; details: in vivo, 168 h
Mus musculus [36] = assay: Toxicity in C57/B16 mouse assessed as effect on cardiac morphology at 100 mg/kg, ip qd administered for 7 days by post-mortem test; format: organism-based; details: in vivo, 168 h
Mus musculus [37] = assay: Inhibition of isoproterenol-mediated decrease in cardiac function in C57/B16 mouse acute model of heart failure at 100 mg/kg, ip qd administered for 7 days by conscious echocardiography; format: functional, organism-based
Mus musculus [38] = assay: Inhibition of isoproterenol-mediated decrease in cardiac morphology in C57/B16 mouse acute model of heart failure at 100 mg/kg, ip qd administered for 7 days by post-mortem test; format: functional, organism-based
Mus musculus [39] = assay: Inhibition of isoproterenol-mediated interstitial cardiac fibrosis in C57/B16 mouse acute model of heart failure at 100 mg/kg, ip qd administered for 7 days by post-mortem test; format: functional, organism-based
Mus musculus [40] = assay: Improvement of cardiac dysfunction in cardiac-specific calsequestrin mouse with dilated cardiomyopathy at 100 mg/kg, ip qd; format: functional, organism-based; details: Heart
Mus musculus [41] = assay: Improvement of cardiac dysfunction in cardiac-specific calsequestrin mouse with dilated cardiomyopathy at 100 mg/kg, ip qd in presence of beta adrenergic receptor blocker metoprolol; format: functional, organism-based; details: Heart
Mus musculus [42] = assay: Increase in survival of cardiac-specific calsequestrin mouse with dilated cardiomyopathy at 100 mg/kg, ip qd; format: functional, organism-based; details: Heart
Mus musculus [43] = assay: Increase in survival of cardiac-specific calsequestrin mouse with dilated cardiomyopathy at 100 mg/kg, ip qd in presence of beta adrenergic receptor blocker metoprolol; format: functional, organism-based; details: Heart
Mus musculus [44] = assay: Downregulation of GRK2 expression in […] mouse acute model of heart failure at 100 mg/kg, ip qd administered for 7 days by immunoblot analysis; format: functional, organism-based

Chain of Delta-type opioid receptor (Homo sapiens) (P41143 whole entry): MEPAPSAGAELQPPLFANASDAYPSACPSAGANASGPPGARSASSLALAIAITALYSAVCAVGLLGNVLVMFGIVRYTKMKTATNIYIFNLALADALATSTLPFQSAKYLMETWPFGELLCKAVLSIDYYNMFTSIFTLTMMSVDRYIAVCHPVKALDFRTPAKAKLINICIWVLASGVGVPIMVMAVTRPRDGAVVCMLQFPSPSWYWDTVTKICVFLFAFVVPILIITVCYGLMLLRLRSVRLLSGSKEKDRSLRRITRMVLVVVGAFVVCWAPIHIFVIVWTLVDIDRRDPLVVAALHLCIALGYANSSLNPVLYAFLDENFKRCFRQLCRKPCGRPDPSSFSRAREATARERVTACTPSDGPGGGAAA
T1 sequence (P59768 2-71 partner limits assumed): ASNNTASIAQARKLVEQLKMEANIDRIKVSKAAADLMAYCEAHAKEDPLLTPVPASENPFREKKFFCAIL
T1 sequence (P62873 2-340 limits assumed): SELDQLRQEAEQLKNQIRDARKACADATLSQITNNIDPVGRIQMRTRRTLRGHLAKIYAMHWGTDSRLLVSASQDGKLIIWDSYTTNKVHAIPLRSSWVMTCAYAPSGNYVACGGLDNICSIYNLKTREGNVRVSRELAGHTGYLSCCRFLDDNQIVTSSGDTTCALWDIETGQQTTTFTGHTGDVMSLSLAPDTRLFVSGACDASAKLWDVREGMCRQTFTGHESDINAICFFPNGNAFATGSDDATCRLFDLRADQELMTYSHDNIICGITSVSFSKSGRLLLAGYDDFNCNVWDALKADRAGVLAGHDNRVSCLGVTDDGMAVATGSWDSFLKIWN
Chain of Mu-type opioid receptor (Homo sapiens) (P35372 whole entry): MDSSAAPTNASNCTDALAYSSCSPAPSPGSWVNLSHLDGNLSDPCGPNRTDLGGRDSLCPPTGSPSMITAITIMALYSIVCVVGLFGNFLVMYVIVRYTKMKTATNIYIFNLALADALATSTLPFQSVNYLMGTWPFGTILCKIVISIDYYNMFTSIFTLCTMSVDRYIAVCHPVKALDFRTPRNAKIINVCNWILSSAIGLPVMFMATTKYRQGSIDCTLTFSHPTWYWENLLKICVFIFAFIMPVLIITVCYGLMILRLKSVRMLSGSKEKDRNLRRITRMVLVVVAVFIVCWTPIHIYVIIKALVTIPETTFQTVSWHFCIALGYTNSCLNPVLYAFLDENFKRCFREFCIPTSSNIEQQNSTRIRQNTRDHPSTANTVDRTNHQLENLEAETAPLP

**Q.** With O=C(O)C1CCCCC1c1c2ccc(=O)c(O)c-2oc2c(O)c(O)ccc12 (stereo not given) as the compound, how does the inhibition [1] read?
**A.** The inhibition was “inactive”.

**Q.** What about the inhibition [2] of the same compound?
**A.** The inhibition was “Active”.

**Q.** And the inhibition [3]?
**A.** The inhibition was “Active”.

**Q.** And the inhibition (HL-60 [4])?
**A.** Its inhibition is “Active”.

**Q.** And the inhibition (HL-60 [5])?
**A.** Its inhibition is “Active”.

**Q.** What about the Activity (HEK293) of the same compound?
**A.** The Activity was “inactive”.

**Q.** And the inhibition (HL-60 [6])?
**A.** The inhibition was “Active”.

**Q.** What about the Activity (HL-60 [7]) of the same compound?
**A.** Its Activity is “inactive”.

**Q.** And the inhibition (HL-60 [8])?
**A.** Its inhibition is “Active”.

**Q.** What about the inhibition (HL-60 [9]) of the same compound?
**A.** Its inhibition is “Active”.

**Q.** What about the inhibition (HL-60 [10]) of the same compound?
**A.** The inhibition was “Active”.

**Q.** What about the Activity [11] of the same compound?
**A.** The Activity was “Non-toxic”.

**Q.** What about the inhibition (Neutrophil [12]) of the same compound?
**A.** The inhibition was “inactive”.

**Q.** What about the inhibition (HL-60 [13]) of the same compound?
**A.** Its inhibition is “inactive”.

**Q.** What about the inhibition (Neutrophil [14]) of the same compound?
**A.** The inhibition was “Active”.

**Q.** And the inhibition (Neutrophil [15])?
**A.** The inhibition was “Active”.

**Q.** What about the Activity (Mus musculus [16]) of the same compound?
**A.** Its Activity is “inactive”.

**Q.** And the Activity (Mus musculus [17])?
**A.** The Activity was “inactive”.

**Q.** What about the ED50 (Mus musculus [18]) of the same compound?
**A.** Its ED50 is 1.3 mg/kg.

**Q.** What about the inhibition [19] of the same compound?
**A.** The inhibition was “Active”.

**Q.** What about the Activity (CHO [20]) of the same compound?
**A.** The Activity was “Non-toxic”.

**Q.** What about the inhibition [21] of the same compound?
**A.** The inhibition was “Active”.

**Q.** What about the Activity (CHO [22]) of the same compound?
**A.** The Activity was “inactive”.

**Q.** And the Activity (CHO [23])?
**A.** The Activity was “inactive”.

**Q.** What about the inhibition (CHO [24]) of the same compound?
**A.** The inhibition was “inactive”.

**Q.** And the inhibition [25]?
**A.** The inhibition was “inactive”.

**Q.** What about the inhibition (Mus musculus [26]) of the same compound?
**A.** Its inhibition is “Active”.

**Q.** What about the Activity [27] of the same compound?
**A.** The Activity was “Non-toxic”.

**Q.** And the inhibition (Mus musculus [28])?
**A.** Its inhibition is “Active”.

**Q.** What about the inhibition (Mus musculus [29]) of the same compound?
**A.** The inhibition was “Active”.

**Q.** And the inhibition (Mus musculus [30])?
**A.** Its inhibition is “Active”.

**Q.** And the inhibition (Mus musculus [31])?
**A.** The inhibition was “Active”.

**Q.** And the inhibition (Mus musculus [32])?
**A.** The inhibition was “inactive”.

**Q.** What about the inhibition (Mus musculus [33]) of the same compound?
**A.** Its inhibition is “inactive”.

**Q.** What about the Activity (Mus musculus [34]) of the same compound?
**A.** The Activity was “Non-toxic”.

**Q.** And the Activity (Mus musculus [35])?
**A.** Its Activity is “Non-toxic”.

**Q.** And the Activity (Mus musculus [36])?
**A.** Its Activity is “Non-toxic”.

**Q.** What about the inhibition (Mus musculus [37]) of the same compound?
**A.** Its inhibition is “Active”.

**Q.** What about the inhibition (Mus musculus [38]) of the same compound?
**A.** The inhibition was “Active”.

**Q.** What about the inhibition (Mus musculus [39]) of the same compound?
**A.** The inhibition was “Active”.

**Q.** What about the Activity (Mus musculus [40]) of the same compound?
**A.** The Activity was “Active”.

**Q.** What about the Activity (Mus musculus [41]) of the same compound?
**A.** The Activity was “Active”.

**Q.** What about the Activity (Mus musculus [42]) of the same compound?
**A.** The Activity was “Active”.

**Q.** And the Activity (Mus musculus [43])?
**A.** The Activity was “Active”.

**Q.** And the Activity (Mus musculus [44])?
**A.** The Activity was “Active”.
